Patent US5187169A, “Method for treatment of neurodegenerative diseases” (R. J. Reynolds Tobacco Company, priority 1992, dated 1993)

Assays:
[1] = biological target: high affinity nicotinic receptors; test: Inhibition of L-[3H]nicotine binding to mouse brain membrane preparations; design: species or system Mice (DBA strain); details: mouse brain membranes, 2 hr incubation at 4° C., 10 nM L-[3H]nicotine, Ki calculated from IC50 by the method of Cheng et al.
Experimental: Mice (DBA strain) were maintained on a 12 hour light/dark cycle and were allowed free access to water and food supplied by Wayne Lab Blox, Madison, Wis. Animals used in the present studies were 60 to 90 days of age and weighed 20 to 25 g. Brain membrane preparations were obtained from pooled brain tissue of both males and females.
Mice were killed by cervical dislocation. Brains were removed and placed on an ice-cold platform. […] Protein was determined by the method of Lowry, et al., J. Biol. Chem., Vol. 193, pp. 265-275 (1951), using bovine serum albumin as the standard.
The binding of L-[^3 H]nicotine was measured using a modification of the method of Romano, et al., Science, Vol. 210, pp. 647-650 (1980) as described previously by Marks, et al., Mol. Pharmacol., Vol. 30, pp. 427-436 (1986). The binding of L-[^3 H]nicotine was measured using a 2 hr. incubation at 4° C. […] Nonspecific binding was determined by inclusion of 10 μM nonradioactive nicotine in the incubations. The inhibition of L-[^3 H]nicotine binding by test compounds was determined by including one of eight different concentrations of the test compound in the incubation. […] Inhibition constants (Ki values) were calculated from the IC50 values using the method of Cheng, et al., Biochem. Pharmacol., Vol. 22, pp. 3099-3108 (1973). […]

[2] = test system: synaptosomes from the striatal area of rat brain; test: [3H]-dopamine release from rat striatal synaptosomes; format: cell-based, Sprague-Dawley rats; details: 0.2 ml of a 20 μM solution of ligand, relative to an equal concentration of (S)-(-)-nicotine
Experimental: Dopamine release was measured by preparing synaptosomes from the striatal area of rat brain obtained from Sprague-Dawley rats generally according to the procedures set forth by Nagy, et al., J. Neurochem., Vol. 43, pp. 1114-1123 (1984). Striata from 4 rats were homogenized in 2 ml of 0.32M sucrose buffered with 5 mM HEPES (pH 7.5), using a glass-teflon tissue grinder. The homogenate was diluted to 5 ml with additional homogenization solution and centrifuged at 1000×g for 10 min. This procedure was repeated on the new pellet and the resulting supernatant was centrifuged at 12,000×g for 20 min. […] Using this method, 30 to 90 percent of the dopamine was taken up into the synaptosomes, as determined by scintillation counting following filtration through glass fiber filters soaked with 0.5 percent polyethyleneimine. […] After the addition of a 0.2 ml of a 20 μM solution of ligand, the perfusate was collected into scintillation vials at 1 min. intervals and the dopamine released was quantified by scintillation counting. Peaks of radioactivity released above background were summed and the average basal release during that time was subtracted from the total. Release was expressed as a percentage of release obtained with an equal concentration of (S)-(-)-nicotine.

For `CN1C(=O)CC[C@H]1c1cccnc1` [cotinine], the Ki [1] was 3.9 µM and the “Dopamine Release” value [2] was 20 Percent release relative to (S.
